Assay results taken from publication PMC8263619, “Functional characteristics of a novel odorant binding protein in the legume pod borer, Maruca vitrata” (Scientific Reports, 2021).

Tests used:
[1] = target: MvitOBP3 protein; test: Fluorescence competitive binding assay with 1-NPN probe; parameters: species or system Maruca vitrata; conditions: recombinant MvitOBP3, 1-NPN fluorescent probe; for IC50: read-out: IC50, ligand concentration displacing 50% of the fluorescence intensity of the MvitOBP/N-phenyl-1-naphthylamine complex; for Ki: read-out: Ki, dissociation constant
Description: The fluorescence measurement takes advantage of the fluorescent properties of the dye, 1-NPN (N-Phenyl-1-naphthylamine, CAS 90-30-2) and is performed by Hitachi F-4500. The wavelength of excitation light was 337 nm, the range of scanning emission wavelength was 350–500 nm, and the slit width was 5 nm. […] Add 2 mL of the protein with a final concentration of 2 μmol/L to a 1 cm, four-sided quartz cup, then add 1-NPN (1 mM/L) to the final concentration is 2–24 μmol/L. And recorded the maximum fluorescence value and determine the protein dissociation constant K1-NPN.
In fluorescence competitive binding assay, the 1-NPN was used as the fluorescent probe, and the dissociation constant (Ki) values of the MvitOBP3/1-NPN complexes were calculated according to the changes in the fluorescence intensity (Fig. 5A). […] These seventeen volatile ligands from host-plant were selected to test binding affinities of MvitOBP3 (Fig. 5 and Table 2).

[2] = target: MvitGOBP1; parameters: method as in PMID 26517714; conditions: cited from earlier work
[3] = target: MvitGOBP2 protein; parameters: method as in PMID 26517714; conditions: cited from earlier work

Row | Structure (SMILES) | IC50 [1] | Ki [1] | Ki [2] | Ki [3]
1 | CCc1cccc(CC)c1 [1,3-diethylbenzene] | 33.6 µM | 29.7 µM | – | –
2 | CC(=O)c1ccc(C(C)=O)cc1 [1,4-diacetyl benzene] | 28.4 µM | 25.1 µM | – | –
3 | CCc1ccc(CC)cc1 [1,4-diethylbenzene] | 29.3 µM | 25.9 µM | – | –
4 | Cc1cc(C)cc(C(C)(C)C)c1 [1-(1,1-Dimethylethyl)-3,5-dimethylbenzene] | 21.8 µM | 19.3 µM | – | –
5 | CC(=O)c1ccc(C)cc1C [1-(2,4-Dimethylphenyl)-ethanone] | 21.4 µM | 18.9 µM | – | –
6 | CCc1ccc(C(C)=O)cc1 [1-(4-ethylphenyl)-ethanone] | 24.1 µM | 21.3 µM | – | –
7 | Oc1cccc2[nH]ccc12 [1H-indol-4-ol] | 12.6 µM | 11.2 µM | 10.9 µM | –
8 | CC(C=O)Cc1ccccc1 (stereo not shown) [2-methyl-3-phenylpropanal] | 10.6 µM | 9.38 µM | – | 3.81 µM
9 | CCC(=O)c1ccc(CC)cc1 [4-ethylpropiophenone] | 26.7 µM | 23.6 µM | 14.2 µM | –
10 | CC(=O)c1ccc(O)c(C)c1 [4-hydroxy-3-methylacetophenone] | 22.7 µM | 20.1 µM | – | –
11 | O=Cc1ccccc1 [Benzaldehyde] | 43.3 µM | 38.3 µM | – | –

Continued, in another order:

Row | IC50 [1] | Ki [1] | Structure (SMILES) | Ki [2] | Ki [3]
12 | 24.2 µM | 21.4 µM | O=Cc1ccccc1O [2-hydroxybenzaldehyde] | – | –
13 | 22.8 µM | 20.1 µM | CCc1ccc(C=O)cc1 [4-ethylbenzaldehyde] | – | –
14 | 41.8 µM | 37 µM | CC(=O)c1ccccc1 [Acetophenone] | – | –
15 | 11.1 µM | 9.79 µM | CCCCOC(=O)CCC [Butanoic acid butyl ester] | 12.5 µM | –
16 | 21.2 µM | 18.7 µM | CCCCCCCCOC(=O)CCC [Butanoic acid octyl ester] | – | 8.5 µM
17 | 9.4 µM | 8.31 µM | C=C(C)C1CC=C(C)CC1 (stereo not shown) [Limonene] | 13.8 µM | –
